Source: ChEMBL document CHEMBL5344441, “Discovery and Preclinical Pharmacology of NX-2127, an Orally Bioavailable Degrader of Bruton's Tyrosine Kinase with Immunomodulatory Activity for the Treatment of Patients with B Cell Malignancies” (J Med Chem, 2024)
Active and inactive are the calls of the source. The rule behind the calls is not given here.

Key:
[1] = target: T1, Protein cereblon/Tyrosine-protein kinase BTK (Mus musculus) (UniProt P35991+Q8C7D2); experiment: In vivo protac activity at CRBN/BTK in BALB/c mouse assessed as residual BTK protein in blood at 30 mg/kg,po administration measured after 24 hrs by flow cytomtery relative to control
[2] = target: T1, Protein cereblon/Tyrosine-protein kinase BTK (Mus musculus); experiment: In vivo protac activity at CRBN/BTK in BALB/c mouse assessed as residual BTK protein in blood at 3 mg/kg,po administration measured after 24 hrs by flow cytomtery relative to control
[3] = target: T2, Protein cereblon/Zinc finger protein Aiolos (Macaca fascicularis) (UniProt A0A2K5UTB3+A0A2K5VJM3); experiment: In vivo protac activity at CRBN/IKZF3 in cynomolgus monkey assessed as degradation of IKZF3 protein at 100 mg/kg,po administration for 14 days by flow cytomtery relative to control; assay type: functional, organism-based; conditions: time 14.0 day
[4] = Observed clearance in rat at 1 mg/kg,iv; assay type: ADME, organism-based; conditions: in vivo
[5] = Observed clearance in mouse at 1 mg/kg,iv; assay type: ADME, organism-based; conditions: in vivo
TMD8 [6] = experiment: Antitumor activity against human TMD8 cells expressing BTK C481S mutant xenografted in CB17-SCID mouse assessed as tumor growth inhibition at 10 mg/kg,po administration for 25 days; assay type: functional; conditions: TMD8, 600 h, time 25 day, read-out: TGI
[7] = Cmax in rat at 10 mg/kg,po; assay type: ADME, organism-based; set-up: dose 10 mg/kg, route po; conditions: in vivo
[8] = Cmax in dog at 10 mg/kg,po; assay type: ADME, organism-based, Canis lupus familiaris; set-up: dose 10 mg/kg, route po; conditions: in vivo
[9] = target: T3, Protein cereblon-BTK (Macaca fascicularis) (UniProt A0A2K5UTB3+A0A7N9IGT8); experiment: In vivo protac activity at CRBN/BTK in cynomolgus monkey assessed as remaining BTK protein in B cells at 100 mg/kg,po administration for 1 day by flow cytomtery relative to control; assay type: functional, organism-based
[10] = Lipophilicity, logD of compound at pH 7.4; assay type: physicochemical; conditions: buffer
[11] = Plasma protein binding in dog; assay type: ADME, cell-free, Canis lupus familiaris; conditions: read-out: PPB (converted)
[12] = system: Protein cereblon/Tyrosine-protein kinase BTK (Homo sapiens); experiment: In vivo protac activity at CRBN/BTK in CB17-SCID mouse xenografted with human TMD8 cells assessed as degradation of BTK protein in tumor at 10 to 90 mg/kg,po administration for 25 days by flow cytomtery; conditions: dose 10-90 mg/kg, time 25.0 day
[13] = Plasma protein binding in human; assay type: ADME, cell-free; conditions: read-out: PPB (converted)
[14] = Oral bioavailability in dog at 10 mg/kg; assay type: ADME, organism-based, Canis lupus familiaris; conditions: in vivo
TMD8 [15] = experiment: Antitumor activity against human TMD8 cells expressing wild type BTK xenografted in CB17-SCID mouse assessed as tumor growth inhibition at 10 mg/kg,po administration for 25 days; assay type: functional; conditions: TMD8, 600 h, time 25 day, read-out: TGI
[16] = target: T2, Protein cereblon/Zinc finger protein Aiolos (Macaca fascicularis); experiment: In vivo protac activity at CRBN/IKZF3 in cynomolgus monkey assessed as degradation of IKZF3 protein at 10 to 100 mg/kg,po administration by flow cytomtery; assay type: functional, organism-based; conditions: dose 10-100 mg/kg
[17] = Cmax in mouse at 10 mg/kg,po; assay type: ADME, organism-based; set-up: dose 10 mg/kg, route po; conditions: in vivo
[18] = Plasma protein binding in mouse; assay type: ADME, cell-free; conditions: read-out: PPB
[19] = AUC in dog at 10 mg/kg,po; assay type: ADME, organism-based, Canis lupus familiaris; set-up: dose 10 mg/kg, route po; conditions: in vivo
[20] = target: Protein cereblon/Tyrosine-protein kinase BTK (Homo sapiens, UniProt Q06187+Q96SW2); experiment: PROTAC activity at CRBN/BTK in human TMD8 cells assessed as degradation of BTK protein incubated for 4 hrs by HTRF assay; assay type: cell-based
[21] = target: T2, Protein cereblon/Zinc finger protein Aiolos (Macaca fascicularis); experiment: In vivo protac activity at CRBN/IKZF3 in cynomolgus monkey assessed as degradation of IKZF3 protein at 10 mg/kg,po administration for 14 days by flow cytomtery relative to control; assay type: functional, organism-based; conditions: time 14.0 day
[22] = AUClast in cynomolgus monkey at 10 mg/kg,po administration for 1 day; assay type: ADME, organism-based, Macaca fascicularis; set-up: dose 10 mg/kg, time 1 day, route po; conditions: in vivo
TMD8 [23] = experiment: Antitumor activity against human TMD8 cells expressing BTK C481S mutant xenografted in CB17-SCID mouse assessed as tumor growth inhibition at 30 mg/kg,po administration for 25 days; assay type: functional; conditions: TMD8, 600 h, time 25 day, read-out: TGI
[24] = Observed clearance in cynomolgus monkey at 1 mg/kg,iv; assay type: ADME, organism-based, Macaca fascicularis; conditions: in vivo
T-cell = experiment: Activation of T-cellular function in anti-CD3/anti-CD28 activated human T cell assessed as increase in IL-2 secretion at 0.001 to 100 nM incubated for 24 hrs followed by anti-CD3/anti-CD28 stimulation by ELISA; assay type: functional, cell-based; conditions: dose 0.001-100 nM
[25] = target: T3, Protein cereblon-BTK (Macaca fascicularis); experiment: In vivo protac activity at CRBN/BTK in cynomolgus monkey assessed as remaining BTK protein in B cells at 10 mg/kg,po administration for 1 day by flow cytomtery relative to control; assay type: functional, organism-based
TMD8 [26] = experiment: Antitumor activity against human TMD8 cells expressing wild type BTK xenografted in CB17-SCID mouse assessed as tumor growth inhibition at 30 mg/kg,po administration for 25 days; assay type: functional; conditions: TMD8, 600 h, time 25 day, read-out: TGI
[27] = Drug uptake in cynomolgus monkey plasma at po administration measured for 24 hrs; assay type: ADME, organism-based, Macaca fascicularis; conditions: in vivo
[28] = AUC in rat at 10 mg/kg,po; assay type: ADME, organism-based; set-up: dose 10 mg/kg, route po; conditions: in vivo
[29] = target: Tyrosine-protein kinase BTK (Homo sapiens, UniProt Q06187, C481S); experiment: Binding affinity to BTK C481S mutant (unknown origin) assessed as dissociation constant by surface plasmon resonance assay
[30] = Plasma protein binding in cynomolgus monkey; assay type: ADME, cell-free, Macaca fascicularis; conditions: read-out: PPB (converted)
[31] = target: T1, Protein cereblon/Tyrosine-protein kinase BTK (Mus musculus); experiment: In vivo protac activity at CRBN/BTK in BALB/c mouse assessed as residual BTK protein in blood at 0.3 mg/kg,po administration measured after 24 hrs by flow cytomtery relative to control
[32] = Cmax in cynomolgus monkey at 10 mg/kg,po administration for 14 days; assay type: ADME, organism-based, Macaca fascicularis; set-up: dose 10 mg/kg, time 14 day, route po; conditions: in vivo
[33] = Observed clearance in dog at 1 mg/kg,iv; assay type: ADME, organism-based, Canis lupus familiaris; conditions: in vivo

T1 sequence (P35991 whole entry, looked up): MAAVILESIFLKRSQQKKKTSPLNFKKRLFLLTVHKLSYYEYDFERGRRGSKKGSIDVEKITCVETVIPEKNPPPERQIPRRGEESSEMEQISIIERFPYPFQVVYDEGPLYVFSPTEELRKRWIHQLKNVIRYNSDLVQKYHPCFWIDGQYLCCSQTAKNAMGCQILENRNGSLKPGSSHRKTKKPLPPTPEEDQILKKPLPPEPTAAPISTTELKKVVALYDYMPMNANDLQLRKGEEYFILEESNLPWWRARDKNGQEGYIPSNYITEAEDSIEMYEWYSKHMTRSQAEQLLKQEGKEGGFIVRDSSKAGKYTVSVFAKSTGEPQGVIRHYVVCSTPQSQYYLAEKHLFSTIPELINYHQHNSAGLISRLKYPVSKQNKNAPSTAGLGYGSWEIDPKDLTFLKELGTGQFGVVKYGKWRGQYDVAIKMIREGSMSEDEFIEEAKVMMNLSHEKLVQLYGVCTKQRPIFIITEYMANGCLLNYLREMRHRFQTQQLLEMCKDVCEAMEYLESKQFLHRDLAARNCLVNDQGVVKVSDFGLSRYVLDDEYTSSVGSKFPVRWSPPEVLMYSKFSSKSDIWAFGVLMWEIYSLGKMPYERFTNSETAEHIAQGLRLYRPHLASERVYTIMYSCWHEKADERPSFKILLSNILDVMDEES
T1 sequence (Q8C7D2 whole entry, looked up): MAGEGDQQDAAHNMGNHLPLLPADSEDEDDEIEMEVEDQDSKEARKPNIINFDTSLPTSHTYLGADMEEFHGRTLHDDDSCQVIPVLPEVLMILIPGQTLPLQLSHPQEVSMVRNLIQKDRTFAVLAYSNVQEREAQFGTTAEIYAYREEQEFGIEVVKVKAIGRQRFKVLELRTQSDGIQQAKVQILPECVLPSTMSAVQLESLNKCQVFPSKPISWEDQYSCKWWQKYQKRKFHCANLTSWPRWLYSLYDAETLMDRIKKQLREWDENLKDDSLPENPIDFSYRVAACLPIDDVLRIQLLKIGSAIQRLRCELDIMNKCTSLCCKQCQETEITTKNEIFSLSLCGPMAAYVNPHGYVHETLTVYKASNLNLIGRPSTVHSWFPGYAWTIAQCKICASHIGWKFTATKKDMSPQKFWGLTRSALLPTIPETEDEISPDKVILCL
T2 sequence (A0A2K5UTB3 1-488): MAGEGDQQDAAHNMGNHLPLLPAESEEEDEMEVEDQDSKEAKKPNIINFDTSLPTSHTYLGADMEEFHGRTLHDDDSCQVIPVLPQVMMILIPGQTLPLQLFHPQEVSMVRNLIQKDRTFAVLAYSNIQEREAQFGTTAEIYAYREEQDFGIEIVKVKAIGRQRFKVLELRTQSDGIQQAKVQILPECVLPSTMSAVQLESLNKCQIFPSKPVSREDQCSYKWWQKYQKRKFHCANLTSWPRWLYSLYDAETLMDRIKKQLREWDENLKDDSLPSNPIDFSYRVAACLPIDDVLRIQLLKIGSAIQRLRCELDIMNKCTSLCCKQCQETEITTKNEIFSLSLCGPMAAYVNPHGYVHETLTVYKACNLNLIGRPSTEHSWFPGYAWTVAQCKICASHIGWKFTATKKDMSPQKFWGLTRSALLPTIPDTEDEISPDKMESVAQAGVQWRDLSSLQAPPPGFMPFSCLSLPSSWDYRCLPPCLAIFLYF
T2 sequence (A0A2K5VJM3 entry or part of it partner): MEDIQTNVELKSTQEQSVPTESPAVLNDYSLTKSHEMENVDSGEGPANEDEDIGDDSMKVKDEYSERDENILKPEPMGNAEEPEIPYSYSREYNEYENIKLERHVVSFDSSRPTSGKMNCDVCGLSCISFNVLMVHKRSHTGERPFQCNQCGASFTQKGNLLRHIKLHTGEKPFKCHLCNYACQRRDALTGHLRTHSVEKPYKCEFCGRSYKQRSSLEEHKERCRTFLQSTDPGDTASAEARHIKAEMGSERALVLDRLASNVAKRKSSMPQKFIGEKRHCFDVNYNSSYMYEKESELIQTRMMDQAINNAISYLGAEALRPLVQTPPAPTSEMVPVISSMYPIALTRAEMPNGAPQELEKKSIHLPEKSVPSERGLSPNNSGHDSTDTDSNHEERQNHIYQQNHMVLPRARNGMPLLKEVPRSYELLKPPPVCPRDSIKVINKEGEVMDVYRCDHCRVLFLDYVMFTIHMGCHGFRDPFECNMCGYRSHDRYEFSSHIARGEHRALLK
T3 sequence (A0A2K5UTB3 1-488): as the sequence (A0A2K5UTB3 1-488) above
T3 sequence (A0A7N9IGT8 entry or part of it partner): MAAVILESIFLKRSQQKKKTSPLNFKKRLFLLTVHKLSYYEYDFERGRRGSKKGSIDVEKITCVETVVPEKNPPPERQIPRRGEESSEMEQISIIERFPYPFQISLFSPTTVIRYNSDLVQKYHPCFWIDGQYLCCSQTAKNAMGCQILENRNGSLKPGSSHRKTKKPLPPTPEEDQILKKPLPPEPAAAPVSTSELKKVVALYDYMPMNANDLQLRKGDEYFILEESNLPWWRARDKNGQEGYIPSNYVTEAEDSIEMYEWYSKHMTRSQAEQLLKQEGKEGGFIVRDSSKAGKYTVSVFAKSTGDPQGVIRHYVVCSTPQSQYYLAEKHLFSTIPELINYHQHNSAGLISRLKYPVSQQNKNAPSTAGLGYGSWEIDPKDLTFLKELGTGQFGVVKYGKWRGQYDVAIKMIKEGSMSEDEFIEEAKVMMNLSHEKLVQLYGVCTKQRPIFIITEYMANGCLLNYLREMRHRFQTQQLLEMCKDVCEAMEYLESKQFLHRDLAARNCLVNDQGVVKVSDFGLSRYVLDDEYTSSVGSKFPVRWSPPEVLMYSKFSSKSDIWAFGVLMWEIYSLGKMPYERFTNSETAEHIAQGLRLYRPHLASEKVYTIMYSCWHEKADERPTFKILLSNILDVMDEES
Sequence of Tyrosine-protein kinase BTK (Q06187 2-659 C481S limits assumed): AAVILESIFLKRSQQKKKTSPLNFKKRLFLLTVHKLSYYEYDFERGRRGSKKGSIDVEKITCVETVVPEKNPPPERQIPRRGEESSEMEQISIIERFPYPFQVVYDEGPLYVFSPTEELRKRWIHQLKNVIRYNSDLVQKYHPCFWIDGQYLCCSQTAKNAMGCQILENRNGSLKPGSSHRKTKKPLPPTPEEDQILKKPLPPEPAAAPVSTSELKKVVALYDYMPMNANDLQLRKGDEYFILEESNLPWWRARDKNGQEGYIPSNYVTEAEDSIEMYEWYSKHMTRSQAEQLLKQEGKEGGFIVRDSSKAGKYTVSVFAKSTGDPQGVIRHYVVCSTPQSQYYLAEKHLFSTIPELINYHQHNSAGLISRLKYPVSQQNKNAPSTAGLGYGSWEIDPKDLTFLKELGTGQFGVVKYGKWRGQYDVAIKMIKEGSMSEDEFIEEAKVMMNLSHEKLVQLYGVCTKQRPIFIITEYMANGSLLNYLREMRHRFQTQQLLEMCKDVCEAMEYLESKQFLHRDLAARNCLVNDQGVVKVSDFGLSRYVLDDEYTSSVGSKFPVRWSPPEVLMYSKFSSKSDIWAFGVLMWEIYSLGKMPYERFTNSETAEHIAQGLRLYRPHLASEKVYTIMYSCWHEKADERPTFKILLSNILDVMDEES
Sequence of Protein cereblon/Tyrosine-protein kinase BTK (Q06187 whole entry): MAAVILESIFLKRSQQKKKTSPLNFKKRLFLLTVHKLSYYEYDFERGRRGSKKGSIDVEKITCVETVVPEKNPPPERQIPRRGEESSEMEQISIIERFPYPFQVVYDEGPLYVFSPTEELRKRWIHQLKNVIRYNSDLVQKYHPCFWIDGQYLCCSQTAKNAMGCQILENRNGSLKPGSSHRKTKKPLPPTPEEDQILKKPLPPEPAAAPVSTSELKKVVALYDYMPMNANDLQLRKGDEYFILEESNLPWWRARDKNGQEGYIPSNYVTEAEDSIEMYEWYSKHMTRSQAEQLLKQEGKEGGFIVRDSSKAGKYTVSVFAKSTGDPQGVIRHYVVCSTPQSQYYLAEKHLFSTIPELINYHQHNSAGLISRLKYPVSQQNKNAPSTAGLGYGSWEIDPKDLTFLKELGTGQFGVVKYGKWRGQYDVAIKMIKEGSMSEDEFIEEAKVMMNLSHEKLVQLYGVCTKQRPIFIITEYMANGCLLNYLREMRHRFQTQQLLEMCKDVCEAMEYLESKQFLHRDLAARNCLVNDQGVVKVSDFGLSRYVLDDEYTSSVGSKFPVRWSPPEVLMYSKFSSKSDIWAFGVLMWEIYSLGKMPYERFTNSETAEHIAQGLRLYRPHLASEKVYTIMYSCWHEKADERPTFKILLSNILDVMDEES
Sequence of Protein cereblon/Tyrosine-protein kinase BTK (Q96SW2 whole entry): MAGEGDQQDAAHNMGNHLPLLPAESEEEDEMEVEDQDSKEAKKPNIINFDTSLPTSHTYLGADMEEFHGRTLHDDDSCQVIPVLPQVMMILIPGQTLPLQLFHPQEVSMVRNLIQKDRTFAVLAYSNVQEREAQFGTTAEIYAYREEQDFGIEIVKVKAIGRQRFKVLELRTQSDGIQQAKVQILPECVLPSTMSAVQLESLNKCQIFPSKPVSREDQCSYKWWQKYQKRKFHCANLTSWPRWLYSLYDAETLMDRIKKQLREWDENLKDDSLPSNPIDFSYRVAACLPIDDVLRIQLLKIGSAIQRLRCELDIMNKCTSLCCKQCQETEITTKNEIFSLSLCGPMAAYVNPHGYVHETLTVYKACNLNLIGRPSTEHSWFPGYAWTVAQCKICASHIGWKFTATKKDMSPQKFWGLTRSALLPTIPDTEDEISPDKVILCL

With `NC(=O)c1ncc(N2CCCCC2)nc1Nc1ccc(C2CCN(C[C@H]3CCN(c4ccc5c(c4)C(=O)N(C4CCC(=O)NC4=O)C5=O)C3)CC2)cc1` (some centres undefined) [ZELEBRUDOMIDE] the residual activity [1] was 12%, the residual activity [2] was 36% and the Activity [3] was 43%. It also gave a clearance [4] of 19 mL/min/kg, a clearance [5] of 5.2 mL/min/kg and an inhibition in vivo at 10 mg/kg (TMD8 [6]) of 17%. It also gave a Cmax [7] of 67 nM, a Cmax [8] of 31 nM and an Activity [9] of 8%. The logD [10] was 3.1, the fraction unbound [11] was 0.025 and the Activity [12] was “Active”. The fraction unbound [13] was 0.063, the bioavailability [14] was 1% and the inhibition in vivo at 10 mg/kg (TMD8 [15]) was 35%. For the same compound, the Activity [16] was “inactive”, the Cmax [17] was 1300 nM and the fraction unbound [18] was < 0.015. For the same compound, the AUC [19] was 0.13 µM·h, the DC50 [20] was 4.5 nM and the Activity [21] was 76%. It also gave an AUC(0-t) at 24 h [22] of 267 ng·h/mL, an inhibition in vivo at 30 mg/kg (TMD8 [23]) of 43% and a clearance [24] of 22.2 mL/min/kg. For the same compound, the Activity (T-cell) was “Active”, the Activity [25] was 11% and the inhibition in vivo at 30 mg/kg (TMD8 [26]) was 73%. The Drug uptake [27] was “Dose-Dependent Effect”, the AUC [28] was 0.89 µM·h and the Kd [29] was 18 nM. The fraction unbound [30] was 0.046, the residual activity [31] was 81% and the Cmax [32] was 25.4 ng/mL. It also gave a clearance [33] of 18.4 mL/min/kg.
